Test system: human immortalized myoblasts (cell line 8220)
Experiment: 2-deoxyglucose treatment during myoblast proliferation
Assay type: cell-based
Description: FIG. 2. Deficiency of TDP-43 or FUS curtails anaerobic glucose metabolism and induces pro-atrophic pathways in myoblasts. A-B-C, Metabolic switch during myogenesis. Myoblasts rely mainly on anaerobic glycolysis while differentiating myocytes and myotubes switch towards a more aerobic metabolism (n=6 experiments). D, shTDP-43 and shFUS-treated myoblasts display consistent reductions in basal glycolysis and glycolytic capacity (n=6 experiments). E, Levels of lactate are decreased in shTDP-43 and shFUS-treated myoblasts (n=3). F, Basal mitochondrial ATP production is slightly affected by TDP-43 or FUS silencing, however effects on spare respiratory capacity are variable (n=6 experiments). G, Immunofluorescence and immublot images of MyoD in 2dg-treated myoblasts. H, Immunostaining images showing the effect of 2dg on the number of MyHC-postive myotubes. I, Pro-atrophic pathways of the […] (UPS) are dramatically augmented in shTDP-43 and shFUS-treated myoblasts (n=3). ECAR, Extracellular Acidification Rate; OCR, Oxygen Consumption Rate: 2dg, 2-deoxyglucose. T-test, *p<0.05; **p<0.01.
Decreased levels of lactate in homogenates from shTDP-43 and shFUS-treated myoblasts when compared to those from shRNA-treated myoblasts corroborated defects in the anaerobic oxidation of glucose (FIG. 2E). […] The increased numbers of mitochondria, as observed by TEM and TOMM20 staining (FIG. 1F,G), may provide a compelling explanation for the increased aerobic potential of shTDP-43 treated myoblasts.
A poor metabolic fitness in muscle is often associated to the upregulation of protein degradation pathways and atrophy. Expression of the key muscle specific E3 ubiquitin ligases, muscle RING finger 1 (MuRF1) and muscle atrophy F-box (MAFbx)/Atrogin-1, are markers of the activation of ubiquitin/proteasome system and atrophy in skeletal muscle.

[1] = 2-DG during myoblast proliferation

## O=CC[C@@H](O)[C@H](O)[C@H](O)CO [2-DG, 2-deoxyglucose]
[1]
  activation of MYOD: reduced the activation of MYOD
  myogenic process (MyHC-positive myotubes): stalled the myogenic process
2-DG treated myoblasts
  expression levels of MurF1 and Atrogin-1: mimicked the effects of TDP-43 and FUS silencing

Reference: patent US20240277695A1, “FOXO INHIBITORS FOR USE IN THE TREATMENT OF DISEASES CAUSED BY ABNORMAL PROCESSING OF TDP-43 AND/OR FUS PROTEINS” (Administración General de la Comunidad Autónoma de Euskadi, priority 2020, published 2024)
